Patent publication US10779550B2, “Human milk oligosaccharides to ameliorate symptoms of stress” (ABBOTT LABORATORIES, priority 2012, dated 2020)
Marks after values point to notes of the source that are not given here.

What was measured:
[1] = system: fecal samples taken from breast-fed infants (BF) (intestinal flora); experiment: Anaerobic fermentation of HMOs with fecal inocula from breast-fed infants; GABA and agmatine in supernatant by GC/MS and LC/MS/MS; format: cell-based, human; details: for GABA, ratio HMO/blank / agmatine, ratio HMO/blank: breast fed infants, fermentation 37° C.; for GABA and agmatine relative to a blank (in words): breast-fed infants (BF) fecal fermentation cultures
Procedure: (§1) Fecal samples from eight human babies, one group of four breast-fed and the other group of four formula-fed, were used as inocula for anaerobic fermentation (37° C.) of lacto-N-neotetraose (LNnT) and 6′-sialyllactose. Supernatants from the fermentation cultures were sampled at 0 hr, 3 hr, and 6 hr. A culture without addition of HMOs served as a control. A sample of the fermentation medium (blank), which constituted approximately 90% of the starting culture volume, was also analyzed.
(§2) Samples were extracted and split into equal parts for analysis on GC/MS and LC/MS/MS platforms. GABA and agmatine ions were identified in chromatograms, and peak area was integrated for quantitative analysis.

[2] = system: fecal samples taken from formula-fed infants (FF) (intestinal flora); experiment: Anaerobic fermentation of HMOs with fecal inocula from formula-fed infants; GABA and agmatine in supernatant by GC/MS and LC/MS/MS; format: cell-based, human; details: for GABA, ratio HMO/blank / agmatine, ratio HMO/blank: formula fed infants, fermentation 37° C.; for GABA and agmatine relative to a blank (in words): formula-fed infants (FF) fecal fermentation cultures
Procedure: as §1, §2

| Structure (SMILES) | GABA, ratio HMO/blank ([1]; 0 h) | agmatine, ratio HMO/blank ([1]; 0 h) | GABA, ratio HMO/blank ([1]; 3 h) | agmatine, ratio HMO/blank ([1]; 3 h) | GABA, ratio HMO/blank ([1]; 6 h) | agmatine, ratio HMO/blank ([1]; 6 h) | GABA and agmatine relative to a blank (in words) [1] | GABA, ratio HMO/blank ([2]; 0 h) | agmatine, ratio HMO/blank ([2]; 0 h) | GABA, ratio HMO/blank ([2]; 3 h) | agmatine, ratio HMO/blank ([2]; 3 h) | GABA, ratio HMO/blank ([2]; 6 h) | agmatine, ratio HMO/blank ([2]; 6 h) | GABA and agmatine relative to a blank (in words) [2] |
| --- | --- | --- | --- | --- | --- | --- | --- | --- | --- | --- | --- | --- | --- | --- |
| CC(=O)N[C@H]1[C@H]([C@H](O)[C@H](O)CO)O[C@@](OC[C@H]2O[C@@H](O[C@H]3[C@H](O)[C@@H](O)[C@H](O)O[C@@H]3CO)[C@H](O)[C@@H](O)[C@H]2O)(C(=O)O)C[C@@H]1O [6′SL, 6′-sialyllactose] | 1.22 | 8.23^a | 3.53 | 10.51 | 5.32 | 3.43 | dramatic increases | 0.6 | 1.4 | 4.31 | 11.99 | 16.99^a | 3.76 | dramatic increases |
| CC(=O)N[C@H]1[C@H](O[C@H]2[C@@H](O)[C@@H](CO)O[C@@H](O[C@H]3[C@H](O)[C@@H](O)C(O)O[C@@H]3CO)[C@@H]2O)O[C@H](CO)[C@@H](O[C@@H]2O[C@H](CO)[C@H](O)[C@H](O)[C@H]2O)[C@@H]1O (mixture of isomers) [LNnT, lacto-N-neotetraose] | 3.66 | 9.52^a | 14.78 | 34.4 | 17.46^a | 1.59 | dramatic increases | 3.25 | 2.12 | 27.83^a | 61.77^a | 33.42^a | 75.02^a | dramatic increases |
